Laboratory results: patent publication US11618743B2, “Herbicidal compounds” (SYNGENTA PARTICIPATIONS AG, priority 2017, dated 2023)

Assays:
Test in all cases: Post-emergence efficacy, Method A
Assay type in all cases: in vivo
[1] = test system: Amaranthus palmeri (AMAPA); conditions: Application rate 500 g/Ha, evaluated after 13 days; for Control of weed species after post-emergence application, AMAPA: 100=total damage to plant, 0=no damage; for Control of weed species AMAPA after post-emergence application (100=total damage to plant; 0=no damage to plant): Method A
Procedure: (§1) Seeds of a variety of test species were sown in standard soil in pots. After cultivation for 14 days (post-emergence) under controlled conditions in a glasshouse (at 24/16° C., day/night; 14 hours light; 65% humidity), the plants were sprayed with an aqueous spray solution derived from the dissolution of the technical active ingredient formula (I) in a small amount of acetone and a special solvent and emulsifier mixture referred to as IF50 (11.12% Emulsogen EL360 TM+44.44% N-methylpyrrolidone+44.44% Dowanol DPM glycol ether), to create a 50 g/l solution which was then diluted to required concentration using 0.25% or 1% Empicol ESC70 (Sodium lauryl ether sulphate)+1% ammonium sulphate as diluent.
(§2) The test plants were then grown in a glasshouse under controlled conditions (at 24/16° C., day/night; 14 hours light; 65% humidity) and watered twice daily. After 13 days the test was evaluated (100=total damage to plant; 0=no damage to plant).
(§3) Ipomoea hederacea (IPOHE), Euphorbia heterophylla (EPHHL), Chenopodium album (CHEAL), Amaranthus palmeri (AMAPA), Lolium perenne (LOLPE), Digitaria sanguinalis (DIGSA), Eleusine indica (ELEIN), Echinochloa crus-galli (ECHCG), Setaria faberi (SETFA)

[2] = test system: Chenopodium album (CHEAL); conditions: Application rate 500 g/Ha, evaluated after 13 days; for Control of weed species after post-emergence application, CHEAL: 100=total damage to plant, 0=no damage; for Control of weed species CHEAL after post-emergence application (100=total damage to plant; 0=no damage to plant): Method A
Procedure: as §1, §2, §3

[3] = test system: Digitaria sanguinalis (DIGSA); conditions: Application rate 500 g/Ha, evaluated after 13 days; for Control of weed species after post-emergence application, DIGSA: 100=total damage to plant, 0=no damage; for Control of weed species DIGSA after post-emergence application (100=total damage to plant; 0=no damage to plant): Method A
Procedure: as §1, §2, §3

[4] = test system: Echinochloa crus-galli (ECHCG); conditions: Application rate 500 g/Ha, evaluated after 13 days; for Control of weed species after post-emergence application, ECHCG: 100=total damage to plant, 0=no damage; for Control of weed species ECHCG after post-emergence application (100=total damage to plant; 0=no damage to plant): Method A
Procedure: as §1, §2, §3

Eleusine indica (ELEIN) = conditions: Application rate 500 g/Ha, evaluated after 13 days; for Control of weed species after post-emergence application, ELEIN: 100=total damage to plant, 0=no damage; for Control of weed species ELEIN after post-emergence application (100=total damage to plant; 0=no damage to plant): Method A
Procedure: as §1, §2, §3

[5] = test system: Euphorbia heterophylla (EPHHL); conditions: Application rate 500 g/Ha, evaluated after 13 days; for Control of weed species after post-emergence application, EPHHL: 100=total damage to plant, 0=no damage; for Control of weed species EPHHL after post-emergence application (100=total damage to plant; 0=no damage to plant): Method A
Procedure: as §1, §2, §3

Setaria faberi (SETFA) = conditions: Application rate 500 g/Ha, evaluated after 13 days; for Control of weed species after post-emergence application, SETFA: 100=total damage to plant, 0=no damage; for Control of weed species SETFA after post-emergence application (100=total damage to plant; 0=no damage to plant): Method A
Procedure: as §1, §2, §3

SMILES	Control of weed species after post-emergence application, AMAPA [1]	Control of weed species after post-emergence application, CHEAL [2]	Control of weed species after post-emergence application, DIGSA [3]	Control of weed species after post-emergence application, ECHCG [4]	Control of weed species after post-emergence application, ELEIN (Eleusine indica (ELEIN))	Control of weed species after post-emergence application, EPHHL [5]	Control of weed species after post-emergence application, SETFA (Setaria faberi (SETFA))	Control of weed species AMAPA after post-emergence application (100=total damage to plant; 0=no damage to plant) [1]	Control of weed species CHEAL after post-emergence application (100=total damage to plant; 0=no damage to plant) [2]	Control of weed species DIGSA after post-emergence application (100=total damage to plant; 0=no damage to plant) [3]	Control of weed species ECHCG after post-emergence application (100=total damage to plant; 0=no damage to plant) [4]	Control of weed species ELEIN after post-emergence application (100=total damage to plant; 0=no damage to plant) (Eleusine indica (ELEIN))	Control of weed species EPHHL after post-emergence application (100=total damage to plant; 0=no damage to plant) [5]	Control of weed species SETFA after post-emergence application (100=total damage to plant; 0=no damage to plant) (Setaria faberi (SETFA))
COC(=O)CC[n+]1ccc(-c2ccncc2)cn1.O=C([O-])C(F)(F)F [Compound A203]	100	90	70	50	60	50	60							
CC(C)(CC(=O)O)[n+]1ccc(-c2ccncn2)cn1.O=C([O-])C(F)(F)F [Compound A189]	100	100	50	80	90	90	70							
O=C(O)CC[n+]1ccc(-c2cncc(C(F)(F)F)n2)cn1.O=C([O-])C(F)(F)F [Compound A120]								90	70	40	40	30	50	40
O=C(O)CC[n+]1ccc(-c2cnc(C(F)(F)F)cn2)cn1.O=C([O-])C(F)(F)F [Compound A121]								100	80	40	40	20	80	30
COC(=O)CC[n+]1ccc(-c2cccnn2)cn1.O=C([O-])C(F)(F)F [Compound A139]								80	100	100	100	100	90	100
O=C([O-])C(F)(F)F.O=S(=O)(O)CCC[n+]1ccc(-c2cnccn2)cn1 [Compound A10]								100	100	60	30	50	100	60
O=C([O-])C(F)(F)F.OCCC[n+]1ccc(-c2ncccn2)cn1 [Compound A206]	60	90	20	20	10	60	10							
Nc1nccc(-c2cc[n+](CCC(=O)O)nc2)n1.O=C([O-])C(F)(F)F [Compound A160]	100	100	70	70	80	90	90							
COC(=O)C(C)[n+]1ccc(-c2ncccn2)cn1.O=C([O-])C(F)(F)F (centres unmarked) [Compound A192]	90	60	30	30	30	40	20							
O=C(O)CC[n+]1ccc(-c2ccncc2F)cn1.O=C([O-])C(F)(F)F [Compound A157]	100	100	70	80	90	80	80							
Cc1cncc(-c2cc[n+](CCC(=O)O)nc2)n1.O=C([O-])C(F)(F)F [Compound A85]								90	90	90	70	90	100	90
O=C(O)CC[n+]1ccc(-c2ccccn2)cn1.O=C([O-])C(F)(F)F [Compound A148]								100	40	50	50	40	60	50
O=C([O-])C(F)(F)F.O=P(O)(O)CC[n+]1ccc(-c2ncccn2)cn1 [Compound A198]	100	100	80	80	80	100	90							
Cc1n[n+](CCC(=O)O)ccc1-c1ncccn1.[Cl-] [Compound A133]								60	40	70	70	90	20	90
